Measured values reported in patent US20040030161A1, “Recovery and purification of anhydro sugar alcohols from a vapor stream” (priority 2002, published 2004).

Type: physicochemical
Experimental: The basis for this process is illustrated for isosorbide in FIG. 1, where the upper curve represents the solubility of isosorbide in water (as percent by weight isosorbide) on the x-axis vs. temperature on the y-axis. The lower curve represents the composition of the condensate (as percent by weight isosorbide) when the condensation is conducted at a pressure of about 14 mm Hg. […] The condensate is a highly concentrated solution of isosorbide and contains only a small fraction as water. Thus, by conducting the condensation under these conditions, most of the isosorbide from, for example, a 20-30 weight percent isosorbide aqueous vapor stream is recovered, leaving most of the water in the vapor phase. The amount of isosorbide left in the vapor is negligibly small because of the very low vapor pressure of isosorbide, on the order of only about 0.001 mm Hg, at a condensation temperature of about 45° C.

solubility of isosorbide in water (percent by weight isosorbide): ~100%
Compound: O[C@@H]1CO[C@H]2[C@@H]1OC[C@@H]2O [isosorbide, 1,4:3,6-dianhydrosorbitol]
